Experimental data from patent US20170008927A1, “ARTIFICIAL CATALYST SYSTEM SUBSTITUTABLE FOR IN VIVO ACYLATION FUNCTION” (The University of Tokyo, priority 2014, published 2017).

Columns and labels:
Format in all cases: cell-based, human
[1] = system: MCF7 cells; test: Intracellular localization of FITC compounds, fluorescence microscope, MCF7 cells
Protocol: After compounds having FITC were added to the cells adhering on a glass coverslip, the cells were cultured, washed with PBS, fixed with 3.7% formaldehyde for 10 minutes, and washed with PBS twice.

[2] = system: MCF7 cells; test: Protein acetylation levels in treated MCF7 cells (chromosome and cytoplasm fractions), western blotting; details: FIG. 6 comparison
Protocol: (§1) Hela cells and MCF7 cells were cultured using Dulbecco's modified Eagle's Medium (DMEM) media supplemented with 10% fetal bovine serum, 100 U/ml of penicillin, and 100 U/ml of streptomycin. The cells were cultured at 37° C. in the presence of 5% CO2.
(§2) The cell fractionation was carried out as follows. Approximately 10^6 cells were detached from a culture dish by a trypsin treatment. After washed with PBS, the cell pellets were suspended in a cooled, cell lysis buffer [50 mM Tris (pH=7.5), 300 mM NaCl, 0.3% Triton X-100, protease inhibitor cocktail, and 1 mM PMSF], and placed on ice for 30 minutes. After the centrifugation (4° C., 1500 rpm, 2 minutes), the supernatant was collected as a cytoplasm fraction. Meanwhile, the pellets were suspended in a cell lysis buffer containing 2 mM MgCl2 and Benzonase (Novagen, 71206), and placed on ice for 30 minutes. Then, 4 mM EDTA was added thereto to stop the reaction. After the centrifugation (4° C., 15000 rpm, 15 minutes), the supernatant was collected as a chromosome fraction.
(§3) Proteins were separated on a 4-20% SDS-PAGE gel, and transferred to a PVDF membrane, followed by blocking with 5% skim milk suspended in TBST for the reaction between the PVDF membrane and primary antibodies. The primary antibodies used were as follows. Anti-Histone H3 (acetyl K122) antibody (ab33309, Abcam), Acetylated-Lysine antibody (#9441, Cell Signaling), Anti-Histone H3 (acetyl K56) antibody (ab76307, Abcam), Anti-acetyl Histone H3 (Lys115) (#07-934, Millipore), Anti-P53 (DO-1) (sc-126, Santa cruz), Anti-Histone H3 (acetyl K9) antibody (ab4441, Abcam), Anti-Histone H3 (acetyl K14) antibody (ab52946, Abcam), Anti-Acetyl-Histone H4 (Ac-Lys16) (H9164, Sigma), Anti-Acetyl-Histone H4 (Ac-Lys5) (SAB4500307, Sigma), anti-acetyl tubulin (T6793, Sigma), Anti-p21/WAF1/Cip1 Antibody (05-655, Millipore), Anti-p27 (Kip1) (04-240, Millipore). […]

[3] = system: Hela cells; test: Protein acetylation levels in treated HeLa cells (chromosome and cytoplasm fractions), western blotting; details: FIG. 6 comparison
Protocol: as §1, §2, §3

[4] = system: hTERT RPE-1 cells; test: Protein acetylation levels in treated hTERT RPE-1 normal cells, western blotting; details: FIG. 6 comparison
Protocol: as §2
Proteins were separated on a 4-20% SDS-PAGE gel, and transferred to a PVDF membrane, followed by blocking with 5% skim milk suspended in TBST for the reaction between the PVDF membrane and primary antibodies. The primary antibodies used were as follows. Anti-Histone H3 (acetyl K122) antibody (ab33309, Abcam), Acetylated-Lysine antibody (#9441, Cell Signaling), Anti-Histone H3 (acetyl K56) antibody (ab76307, Abcam), Anti-acetyl Histone H3 (Lys115) (#07-934, Millipore), Anti-P53 (DO-1) (sc-126, Santa cruz), Anti-Histone H3 (acetyl K9) antibody (ab4441, Abcam), Anti-Histone H3 (acetyl K14) antibody (ab52946, Abcam), Anti-Acetyl-Histone H4 (Ac-Lys16) (H9164, Sigma), Anti-Acetyl-Histone H4 (Ac-Lys5) (SAB4500307, Sigma), anti-acetyl tubulin (T6793, Sigma), Anti-p21/WAF1/Cip1 Antibody (05-655, Millipore), Anti-p27 (Kip1) (04-240, Millipore). After washing with TBST, the PVDF membrane was treated with a chemilluminescent detection reagent Luminata Forte Western HRP Substrate (Millipore), and the detection was performed using ImageQuant LAS 4000 (GE healthcare life sciences).
MCF7 cells, HeLa cells, and hTERT RPE-1 (hereinafter, RPE-1) cells which are normal cells were treated with an HDAC inhibitor (SAHA). […] On the other hand, there was no change in the acetylation of K56 present in the H3 globular region (FIG. 6).

SMILES | intracellular localization (FITC signal) [1] | acetylation of K56, H3 globular region [2] | acetylations of lysines in the tail regions of histones H3 and H4 [2] | tubulin acetylation in the cytoplasm [2] | acetylation of K56, H3 globular region [3] | acetylations of lysines in the tail regions of histones H3 and H4 [3] | tubulin acetylation in the cytoplasm [3] | acetylation of K56, H3 globular region [4] | acetylations of lysines in the tail regions of histones H3 and H4 [4] | tubulin acetylation in the cytoplasm [4]
CC(=O)N(OCc1cn(CCOCCOCCOc2cc(C(=O)NCC(=O)N[C@@H](CCCNC(=N)N)C(=O)NC(CCCNC(=N)N)C(=O)N[C@@H](CCCNC(=N)N)C(=O)NC(CCCNC(=N)N)C(=O)N[C@@H](CCCNC(=N)N)C(=O)NC(CCCNC(=N)N)C(=O)N[C@@H](CCCNC(=N)N)C(=O)NC(CCCNC(=N)N)C(N)=O)cc(OCCOCCOCCn3cc(CON(C(C)=O)C(C)=O)nn3)c2OCCOCCOCCn2cc(CON(C(C)=O)C(C)=O)nn2)nn1)C(C)=O (stereo partly shown) [Compound 3NMD-8R] | successfully localized in the nucleus and the chromosomes |  |  |  |  |  |  |  |  | 
O=C(CCCCCCC(=O)Nc1ccccc1)NO [SAHA] |  | no change | significantly enhanced | significantly enhanced | no change | significantly enhanced | significantly enhanced | no change | significantly enhanced | significantly enhanced
